T/C data for four compounds are collected here from PubChem BioAssay AID256 (DTP/NCI, 2004).

For the experiment, the system named is CD2F1 mice, L1210 leukemia ip, survival T/C. Nature of the experiment: NCI In Vivo Anticancer Drug Screen. Data for tumor model L1210 Leukemia (intraperitoneal) in CD2F1 (CDF1) mice. The following applies: higher = longer survival. An outline of the steps:
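Compound-dosed mice with transplantable tumor versus matched vehicle controls; endpoint ratio T/C reported.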

Values joined by “and” are separate entries in the source; they are usually repeats but may differ in a detail not shown here. Identical values can stand only once. Inconclusive results and toxic doses are left out.

`O=C1c2c(O)ccc(O)c2C(=O)c2c(NCCNCCO)ccc(NCCNCCO)c21`: the T/C reads like this: (endpoint: mean survival time, dose: 0.13 mg/kg/injection, schedule: Q01DX005 (iv), vehicle: acid diluted with saline) 104 % of control; (endpoint: mean survival time, dose: 0.13 mg/kg/injection, schedule: Q01DX005 (iv), vehicle: clinical formulation) 109 % of control; (endpoint: mean survival time, dose: 0.13 mg/kg/injection, schedule: Q01DX009 (ip), vehicle: clinical formulation) 276 % of control and 165 % of control; (endpoint: mean survival time, dose: 0.19 mg/kg/injection, schedule: Q01DX009 (ip), vehicle: saline) 161 % of control and 195 % of control; (endpoint: mean survival time, dose: 0.25 mg/kg/injection, schedule: Q01DX005 (iv), vehicle: acid diluted with saline) 110 % of control; (endpoint: mean survival time, dose: 0.25 mg/kg/injection, schedule: Q01DX005 (iv), vehicle: saline) 117 % of control. For the same compound, the T/C is, setting by setting: (endpoint: mean survival time, dose: 0.25 mg/kg/injection, schedule: Q01DX009 (ip), vehicle: acid diluted with saline) 170 % of control and 196 % of control; (endpoint: mean survival time, dose: 0.25 mg/kg/injection, schedule: Q01DX009 (ip), vehicle: clinical formulation) 404 % of control and 223 % of control; (endpoint: mean survival time, dose: 0.38 mg/kg/injection, schedule: Q01DX009 (ip), vehicle: saline) 182 % of control and 193 % of control; (endpoint: mean survival time, dose: 0.5 mg/kg/injection, schedule: Q01DX005 (iv), vehicle: acid diluted with saline) 153 % of control; (endpoint: mean survival time, dose: 0.5 mg/kg/injection, schedule: Q01DX005 (iv), vehicle: clinical formulation) 163 % of control and 159 % of control; (endpoint: mean survival time, dose: 0.5 mg/kg/injection, schedule: Q01DX005 (iv), vehicle: saline) 152 % of control. The T/C (endpoint: mean survival time, dose: 0.5 mg/kg/injection, schedule: Q01DX005 (oral), vehicle: acid diluted with saline) is 102 % of control and 107 % of control; the T/C (endpoint: mean survival time, dose: 0.5 mg/kg/injection, schedule: Q01DX009 (ip), vehicle: acid diluted with saline) was 150 % of control and 171 % of control and 328 % of control; the T/C (endpoint: mean survival time, dose: 0.5 mg/kg/injection, schedule: Q01DX009 (ip), vehicle: clinical formulation) was 228 % of control; the T/C (endpoint: mean survival time, dose: 1.0 mg/kg/injection, schedule: Q01DX005 (ip), vehicle: acid diluted with saline) was 163 % of control; the T/C (endpoint: mean survival time, dose: 1.0 mg/kg/injection, schedule: Q01DX005 (iv), vehicle: acid diluted with saline) was 157 % of control and 170 % of control; the T/C (endpoint: mean survival time, dose: 1.0 mg/kg/injection, schedule: Q01DX005 (iv), vehicle: clinical formulation) is 324 % of control. Further, the T/C reads like this: (endpoint: mean survival time, dose: 1.0 mg/kg/injection, schedule: Q01DX005 (iv), vehicle: saline) 180 % of control; (endpoint: mean survival time, dose: 1.0 mg/kg/injection, schedule: Q01DX005 (oral), vehicle: acid diluted with saline) 101 % of control; (endpoint: mean survival time, dose: 1.0 mg/kg/injection, schedule: Q01DX009 (ip), vehicle: acid diluted with saline) 168 % of control and 274 % of control and 307 % of control; (endpoint: mean survival time, dose: 1.0 mg/kg/injection, schedule: Q01DX009 (ip), vehicle: clinical formulation) 494 % of control; (endpoint: mean survival time, dose: 1.0 mg/kg/injection, schedule: Q04DX003 (iv), vehicle: acid diluted with saline) 151 % of control; (endpoint: mean survival time, dose: 2.0 mg/kg/injection, schedule: Q01DX005 (ip), vehicle: acid diluted with saline) 198 % of control. Further, the T/C is 168 % of control and 409 % of control (endpoint: mean survival time, dose: 2.0 mg/kg/injection, schedule: Q01DX005 (iv), vehicle: acid diluted with saline); 171 % of control (endpoint: mean survival time, dose: 2.0 mg/kg/injection, schedule: Q01DX005 (iv), vehicle: clinical formulation); 173 % of control (endpoint: mean survival time, dose: 2.0 mg/kg/injection, schedule: Q01DX005 (iv), vehicle: saline); 102 % of control and 109 % of control (endpoint: mean survival time, dose: 2.0 mg/kg/injection, schedule: Q01DX005 (oral), vehicle: acid diluted with saline); 246 % of control and 354 % of control (endpoint: mean survival time, dose: 2.0 mg/kg/injection, schedule: Q01DX009 (ip), vehicle: acid diluted with saline); 190 % of control (endpoint: mean survival time, dose: 2.0 mg/kg/injection, schedule: Q01DX009 (ip), vehicle: clinical formulation). Moreover, the T/C was 167 % of control and 223 % of control (endpoint: mean survival time, dose: 2.0 mg/kg/injection, schedule: Q04DX003 (ip), vehicle: acid diluted with saline); 189 % of control (endpoint: mean survival time, dose: 2.0 mg/kg/injection, schedule: Q04DX003 (iv), vehicle: acid diluted with saline); 190 % of control and 221 % of control (endpoint: mean survival time, dose: 3.89 mg/kg/injection, schedule: Q01DX001 (ip), vehicle: acid diluted with saline); 163 % of control and 173 % of control (endpoint: mean survival time, dose: 3.89 mg/kg/injection, schedule: Q01DX001 (iv), vehicle: acid diluted with saline); 256 % of control (endpoint: mean survival time, dose: 4.0 mg/kg/injection, schedule: Q01DX005 (ip), vehicle: acid diluted with saline); 90 % of control (endpoint: mean survival time, dose: 4.0 mg/kg/injection, schedule: Q01DX005 (iv), vehicle: acid diluted with saline). The T/C (endpoint: mean survival time, dose: 4.0 mg/kg/injection, schedule: Q01DX005 (oral), vehicle: acid diluted with saline) was 102 % of control and 107 % of control; the T/C (endpoint: mean survival time, dose: 4.0 mg/kg/injection, schedule: Q01DX009 (ip), vehicle: acid diluted with saline) is 118 % of control and 101 % of control and 102 % of control; the T/C (endpoint: mean survival time, dose: 4.0 mg/kg/injection, schedule: Q04DX003 (ip), vehicle: acid diluted with saline) is 211 % of control and 230 % of control; the T/C (endpoint: mean survival time, dose: 4.0 mg/kg/injection, schedule: Q04DX003 (iv), vehicle: acid diluted with saline) was 260 % of control; the T/C (endpoint: mean survival time, dose: 6.48 mg/kg/injection, schedule: Q01DX001 (ip), vehicle: acid diluted with saline) was 248 % of control and 328 % of control; the T/C (endpoint: mean survival time, dose: 6.48 mg/kg/injection, schedule: Q01DX001 (iv), vehicle: acid diluted with saline) is 180 % of control and 181 % of control. Further, the T/C reads like this: (endpoint: mean survival time, dose: 8.0 mg/kg/injection, schedule: Q01DX005 (ip), vehicle: acid diluted with saline) 98 % of control; (endpoint: mean survival time, dose: 8.0 mg/kg/injection, schedule: Q01DX005 (oral), vehicle: acid diluted with saline) 100 % of control and 107 % of control; (endpoint: mean survival time, dose: 8.0 mg/kg/injection, schedule: Q04DX003 (ip), vehicle: acid diluted with saline) 320 % of control; (endpoint: mean survival time, dose: 8.0 mg/kg/injection, schedule: Q04DX003 (iv), vehicle: acid diluted with saline) 163 % of control; (endpoint: mean survival time, dose: 10.8 mg/kg/injection, schedule: Q01DX001 (ip), vehicle: acid diluted with saline) 207 % of control and 309 % of control; (endpoint: mean survival time, dose: 10.8 mg/kg/injection, schedule: Q01DX001 (iv), vehicle: acid diluted with saline) 233 % of control and 261 % of control. The T/C (endpoint: mean survival time, dose: 16.0 mg/kg/injection, schedule: Q01DX005 (oral), vehicle: acid diluted with saline) was 93 % of control and 109 % of control; the T/C (endpoint: mean survival time, dose: 16.0 mg/kg/injection, schedule: Q04DX003 (iv), vehicle: acid diluted with saline) is 110 % of control; the T/C (endpoint: mean survival time, dose: 18.0 mg/kg/injection, schedule: Q01DX001 (ip), vehicle: acid diluted with saline) was 191 % of control and 344 % of control; the T/C (endpoint: mean survival time, dose: 18.0 mg/kg/injection, schedule: Q01DX001 (iv), vehicle: acid diluted with saline) is 308 % of control and 344 % of control; the T/C (endpoint: mean survival time, dose: 30.0 mg/kg/injection, schedule: Q01DX001 (ip), vehicle: acid diluted with saline) was 289 % of control; the T/C (endpoint: mean survival time, dose: 30.0 mg/kg/injection, schedule: Q01DX001 (iv), vehicle: acid diluted with saline) was 156 % of control. In addition, the T/C was 172 % of control (endpoint: median survival time, dose: 0.25 mg/kg/injection, schedule: Q01DX009 (ip), vehicle: acid diluted with saline); 170 % of control and 197 % of control (endpoint: median survival time, dose: 0.5 mg/kg/injection, schedule: Q01DX009 (ip), vehicle: acid diluted with saline); 179 % of control and 182 % of control (endpoint: median survival time, dose: 1.0 mg/kg/injection, schedule: Q01DX009 (ip), vehicle: acid diluted with saline); 151 % of control (endpoint: median survival time, dose: 1.08 mg/kg/injection, schedule: Q04DX003 (ip), vehicle: saline); 175 % of control (endpoint: median survival time, dose: 1.8 mg/kg/injection, schedule: Q04DX003 (ip), vehicle: saline); 219 % of control and 370 % of control (endpoint: median survival time, dose: 2.0 mg/kg/injection, schedule: Q01DX009 (ip), vehicle: acid diluted with saline). Moreover, the T/C (endpoint: median survival time, dose: 2.16 mg/kg/injection, schedule: Q01DX001 (iv), vehicle: saline) is 170 % of control; the T/C (endpoint: median survival time, dose: 3.6 mg/kg/injection, schedule: Q01DX001 (iv), vehicle: saline) was 170 % of control; the T/C (endpoint: median survival time, dose: 5.0 mg/kg/injection, schedule: Q04DX003 (ip), vehicle: saline) is 208 % of control; the T/C (endpoint: median survival time, dose: 6.0 mg/kg/injection, schedule: Q01DX001 (iv), vehicle: saline) is 196 % of control.

Turning to `Cc1ccc(C(O)S(=O)(=O)O)cc1` (stereo not drawn), the T/C by setting is: (endpoint: mean survival time, dose: 100.0 mg/kg/injection, schedule: Q04DX003 (ip), vehicle: saline with Tween-80) 119 % of control; (endpoint: mean survival time, dose: 200.0 mg/kg/injection, schedule: Q04DX003 (ip), vehicle: saline with Tween-80) 103 % of control; (endpoint: mean survival time, dose: 400.0 mg/kg/injection, schedule: Q04DX003 (ip), vehicle: saline with Tween-80) 115 % of control.

For the compound `CC(C)NC(=O)CCSCCC(=O)NC(C)C`, the T/C is 89 % of control (endpoint: mean survival time, dose: 25.0 mg/kg/injection, schedule: Q04DX002 (ip), vehicle: other); 93 % of control (endpoint: mean survival time, dose: 50.0 mg/kg/injection, schedule: Q04DX002 (ip), vehicle: other); 97 % of control (endpoint: mean survival time, dose: 100.0 mg/kg/injection, schedule: Q04DX002 (ip), vehicle: other); 89 % of control (endpoint: mean survival time, dose: 200.0 mg/kg/injection, schedule: Q04DX002 (ip), vehicle: other).

With `CN(Cc1ccccc1)/C(N)=N/N`, the T/C (endpoint: mean survival time, dose: 75.0 mg/kg/injection, schedule: Q01DX001 (ip), vehicle: saline) was 102 % of control and the T/C (endpoint: mean survival time, dose: 150.0 mg/kg/injection, schedule: Q01DX001 (ip), vehicle: saline) is 107 % of control.
